Patent US10457655B2, “Compounds and compositions for inhibition of FASN” (FORMA Therapeutics, Inc., priority 2013, dated 2019)

These compounds were tested against FASN enzyme (Homo sapiens, UniProt P49327) (assay: Enzymatic Assay for FASN Inhibitors). Conditions: not given.
Type: biochemical
In short: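 40 nM FASN preincubated with compound 60 min at 25° C in HEPES pH 7.3 buffer with 0.04% Triton X-100. Then 20 μM acetyl-CoA, 60 μM malonyl-CoA and 100 μM NADPH added for 90 min, quenched with CPM thiol probe; fluorescence 360/530 nm, IC50 by four-parameter fit.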

Sequence of FASN enzyme (P49327 whole entry): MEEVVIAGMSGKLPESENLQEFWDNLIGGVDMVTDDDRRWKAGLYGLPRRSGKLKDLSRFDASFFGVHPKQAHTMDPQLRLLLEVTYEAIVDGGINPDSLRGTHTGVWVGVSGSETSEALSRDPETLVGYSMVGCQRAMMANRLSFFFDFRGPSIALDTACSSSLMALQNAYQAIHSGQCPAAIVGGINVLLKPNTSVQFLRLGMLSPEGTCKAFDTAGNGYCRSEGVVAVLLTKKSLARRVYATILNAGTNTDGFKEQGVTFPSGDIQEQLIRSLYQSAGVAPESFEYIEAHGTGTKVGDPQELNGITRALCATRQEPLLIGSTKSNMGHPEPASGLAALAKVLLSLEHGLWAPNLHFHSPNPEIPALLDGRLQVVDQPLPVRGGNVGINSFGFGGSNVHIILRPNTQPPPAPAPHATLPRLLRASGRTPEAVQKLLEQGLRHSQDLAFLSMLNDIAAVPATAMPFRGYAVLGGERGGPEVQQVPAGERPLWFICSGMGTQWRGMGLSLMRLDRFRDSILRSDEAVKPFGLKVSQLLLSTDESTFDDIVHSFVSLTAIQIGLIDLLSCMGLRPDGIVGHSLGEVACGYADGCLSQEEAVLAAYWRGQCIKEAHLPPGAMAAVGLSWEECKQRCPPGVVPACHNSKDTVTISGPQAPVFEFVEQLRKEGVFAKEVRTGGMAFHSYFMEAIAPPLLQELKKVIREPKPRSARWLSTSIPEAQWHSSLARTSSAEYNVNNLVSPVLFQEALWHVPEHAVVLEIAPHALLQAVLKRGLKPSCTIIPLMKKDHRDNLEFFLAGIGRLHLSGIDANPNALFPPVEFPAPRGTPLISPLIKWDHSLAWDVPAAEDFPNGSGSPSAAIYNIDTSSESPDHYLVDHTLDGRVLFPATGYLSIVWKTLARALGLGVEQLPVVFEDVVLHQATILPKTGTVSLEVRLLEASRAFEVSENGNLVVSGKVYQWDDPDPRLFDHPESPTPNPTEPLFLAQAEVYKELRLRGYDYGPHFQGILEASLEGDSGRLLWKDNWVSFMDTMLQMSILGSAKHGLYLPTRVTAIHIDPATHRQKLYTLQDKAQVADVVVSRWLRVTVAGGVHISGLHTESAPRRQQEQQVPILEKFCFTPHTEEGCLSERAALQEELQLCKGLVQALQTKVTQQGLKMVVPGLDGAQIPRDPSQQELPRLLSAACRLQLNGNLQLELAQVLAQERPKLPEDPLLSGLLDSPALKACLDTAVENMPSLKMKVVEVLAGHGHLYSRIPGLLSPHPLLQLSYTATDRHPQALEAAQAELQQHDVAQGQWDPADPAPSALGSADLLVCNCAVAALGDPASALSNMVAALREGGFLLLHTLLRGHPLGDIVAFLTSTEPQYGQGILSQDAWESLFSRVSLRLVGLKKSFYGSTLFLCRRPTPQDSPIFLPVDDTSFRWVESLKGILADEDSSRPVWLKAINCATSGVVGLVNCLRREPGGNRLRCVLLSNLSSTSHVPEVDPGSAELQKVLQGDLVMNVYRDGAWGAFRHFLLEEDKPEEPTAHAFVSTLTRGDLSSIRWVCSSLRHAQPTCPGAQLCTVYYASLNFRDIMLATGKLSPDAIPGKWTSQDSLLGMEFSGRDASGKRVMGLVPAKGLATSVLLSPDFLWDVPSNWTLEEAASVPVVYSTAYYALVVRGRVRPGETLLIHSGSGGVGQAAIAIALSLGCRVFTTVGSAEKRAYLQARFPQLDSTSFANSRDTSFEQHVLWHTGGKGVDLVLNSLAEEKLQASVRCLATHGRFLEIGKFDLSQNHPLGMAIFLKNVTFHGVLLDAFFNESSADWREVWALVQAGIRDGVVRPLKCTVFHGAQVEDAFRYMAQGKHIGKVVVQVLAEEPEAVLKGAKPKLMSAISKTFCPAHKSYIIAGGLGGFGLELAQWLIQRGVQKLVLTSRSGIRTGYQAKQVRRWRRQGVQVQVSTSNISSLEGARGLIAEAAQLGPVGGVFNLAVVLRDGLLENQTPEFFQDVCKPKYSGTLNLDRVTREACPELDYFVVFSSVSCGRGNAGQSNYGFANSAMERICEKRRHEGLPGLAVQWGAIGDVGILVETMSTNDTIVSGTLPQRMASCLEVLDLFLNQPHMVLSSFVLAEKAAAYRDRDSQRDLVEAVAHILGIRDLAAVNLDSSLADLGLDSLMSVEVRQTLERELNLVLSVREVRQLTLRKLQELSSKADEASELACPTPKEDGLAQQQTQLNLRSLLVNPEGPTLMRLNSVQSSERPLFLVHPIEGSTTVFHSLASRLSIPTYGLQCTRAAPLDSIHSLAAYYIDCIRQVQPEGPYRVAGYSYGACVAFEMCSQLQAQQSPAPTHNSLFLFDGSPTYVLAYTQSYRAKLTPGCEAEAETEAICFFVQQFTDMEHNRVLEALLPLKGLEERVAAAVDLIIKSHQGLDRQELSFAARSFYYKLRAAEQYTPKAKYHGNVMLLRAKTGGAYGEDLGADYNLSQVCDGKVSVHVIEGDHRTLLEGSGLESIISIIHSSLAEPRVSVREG

Structure (SMILES)	IC50 [nM]
Cc1nn(C)c2ccc(-c3ccc(C(=O)N4CCN(C(=O)C5(O)CC5)CC4)cc3F)cc12 [1-{4-[4-(1,3-dimethyl-1H-indazol-5-yl)-3-fluorobenzoyl]piperazine-1-carbonyl}cyclopropan-1-ol]	< 500
O=C(c1ccc(-n2cnc3ccccc32)cc1)N1CCN(C(=O)C2(O)CC2)CC1 [1-{4-[4-(1H-1,3-benzodiazol-1-yl)benzoyl]piperazine-1-carbonyl}cyclopropan-1-ol]	< 500
O=C(c1ccc(-c2cccc3nsnc23)cc1)N1CCN(C(=O)C2(O)CC2)CC1	< 500
O=C(c1ccc(N2CCc3c(F)cccc32)cc1)N1CCN(C(=O)C2(O)CC2)CC1 [1-{4-[4-(4-fluoro-2,3-dihydro-1H-indol-1-yl)benzoyl]piperazine-1-carbonyl}cyclopropan-1-ol]	< 500
O=C(c1ccc(-c2ccc(F)cc2Cl)cc1)N1CCN(C(=O)C2(O)CC2)CC1 [1-[(4-{[4-(2-chloro-4-fluorophenyl)phenyl]carbonyl}piperazin-1-yl)carbonyl]cyclopropan-1-ol]	< 500
Cc1[nH]c2ccccc2c1-c1ccc(C(=O)N2CCN(C(=O)C3(O)CC3)CC2)cc1 [1-{4-[4-(2-methyl-1H-indol-3-yl)benzoyl]piperazine-1-carbonyl}cyclopropan-1-ol]	< 500
O=C(c1ccc(N2Cc3ccccc3C2)cc1)N1CCN(C(=O)C2(O)CC2)CC1 [1-{4-[4-(2,3-dihydro-1H-isoindol-2-yl)benzoyl]piperazine-1-carbonyl}cyclopropan-1-ol]	< 500
Nc1cc(-c2cccc(-c3ccc(C(=O)N4CCN(C(=O)C5(O)CC5)CC4)c(F)c3)c2)no1 [1-(4-{4-[3-(5-amino-1,2-oxazol-3-yl)phenyl]-2-fluorobenzoyl}piperazine-1-carbonyl)cyclopropan-1-ol]	< 500
O=C(c1ccc(-c2ccc(Cl)c(F)c2)cc1)N1CCN(C(=O)C2(O)CC2)CC1 [1-[(4-{[4-(4-chloro-3-fluorophenyl)phenyl]carbonyl}piperazin-1-yl)carbonyl]cyclopropan-1-ol]	< 500
Cn1cnc2cc(-c3ccc(C(=O)N4CCN(C(=O)C5(O)CC5)CC4)cc3Cl)ccc21 [1-{4-[3-chloro-4-(1-methyl-1H-1,3-benzodiazol-5-yl)benzoyl]piperazine-1-carbonyl}cyclopropan-1-ol]	< 500
Cc1n[nH]c2c(-c3ccc(C(=O)N4CCN(C(=O)C5(O)CC5)CC4)c(F)c3)cccc12 [1-{4-[2-fluoro-4-(3-methyl-1H-indazol-7-yl)benzoyl]piperazine-1-carbonyl}cyclopropan-1-ol]	< 500
Cn1cc2ccc(-c3ccc(C(=O)N4CCN(C(=O)C5(N)CC5)CC4)c(F)c3)cc2n1 [1-{4-[2-fluoro-4-(2-methyl-2H-indazol-6-yl)benzoyl]piperazine-1-carbonyl}cyclopropan-1-amine]	< 500
O=C(c1ccc(N2CCCc3ccccc32)cc1)N1CCN(C(=O)C2(O)CC2)CC1	< 500
O=C(c1ccc(-c2cccc3[nH]cnc23)cc1Cl)N1CCN(C(=O)C2(O)CC2)CC1 [1-{4-[4-(1H-1,3-benzodiazol-4-yl)-2-chlorobenzoyl]piperazine-1-carbonyl}cyclopropan-1-ol]	< 500
C[C@H]1CN(C(=O)c2ccc(-c3ccc4c(c3)ncn4C)cc2F)CCN1C(=O)C1(O)CC1 [1-[(2S)-4-[2-fluoro-4-(1-methyl-1H-1,3-benzodiazol-5-yl)benzoyl]-2-methylpiperazine-1-carbonyl]cyclopropan-1-ol]	< 500
O=C(c1ccc(N2Cc3ccc(F)cc3C2)cc1)N1CCN(C(=O)C2(O)CC2)CC1 [1-{4-[4-(5-fluoro-2,3-dihydro-1H-isoindol-2-yl)benzoyl]piperazine-1-carbonyl}cyclopropan-1-ol]	< 500
O=C(c1ccc(-c2ccc(Cl)c(Cl)c2)cc1)N1CCN(C(=O)C2(O)CC2)CC1 [1-[(4-{[4-(3,4-dichlorophenyl)phenyl]carbonyl}piperazin-1-yl)carbonyl]cyclopropan-1-ol]	< 500

Structure (SMILES)	IC50 [nM]
Cn1cc(-c2ccc(-c3ccc(C(=O)N4CCN(C(=O)C5(O)CC5)CC4)cc3)cc2)cn1 [1-(4-{4-[4-(1-methyl-1H-pyrazol-4-yl)phenyl]benzoyl}piperazine-1-carbonyl)cyclopropan-1-ol]	< 500
Cc1nn(C)c2ccc(-c3ccc(C(=O)N4CCN(C(=O)C5(O)CC5)CC4)cc3Cl)cc12 [1-{4-[3-chloro-4-(1,3-dimethyl-1H-indazol-5-yl)benzoyl]piperazine-1-carbonyl}cyclopropan-1-ol]	< 500
COc1ccc2nc(-c3ccc(C(=O)N4CCN(C(=O)C5(O)CC5)CC4)cc3)oc2c1 [1-{4-[4-(6-methoxy-1,3-benzoxazol-2-yl)benzoyl]piperazine-1-carbonyl}cyclopropan-1-ol]	< 500
Cc1n[nH]c2c(-c3ccc(C(=O)N4CCN(C(=O)C5(N)CC5)CC4)c(F)c3)cccc12 [1-{4-[2-fluoro-4-(3-methyl-1H-indazol-7-yl)benzoyl]piperazine-1-carbonyl}cyclopropan-1-amine]	< 500
CCOC(=O)Nc1cccc(-c2ccc(C(=O)N3CCN(C(=O)C4(O)CC4)CC3)cc2)c1 [ethyl N-(3-{4-[4-(1-hydroxycyclopropanecarbonyl)piperazine-1-carbonyl]phenyl}phenyl)carbamate]	< 500
Cn1ccc2cc(-c3ccc(C(=O)N4CCN(C(=O)C5(O)CC5)CC4)cn3)ccc21	< 500
O=C(c1ccc(-c2ccc(Cl)cc2F)cc1)N1CCN(C(=O)C2(O)CC2)CC12CC2 [1-{4-[4-(4-chloro-2-fluorophenyl)benzoyl]-4,7-diazaspiro[2.5]octane-7-carbonyl}cyclopropan-1-ol]	< 500
Cn1ncc2ccc(-c3cc(F)c(C(=O)N4CCN(C(=O)C5(O)CC5)CC4)c(F)c3)cc21 [1-{4-[2,6-difluoro-4-(1-methyl-1H-indazol-6-yl)benzoyl]piperazine-1-carbonyl}cyclopropan-1-ol]	< 500
CC1(C)CN(C(=O)C2(O)CC2)CCN1C(=O)c1ccc(-c2ccc(Cl)cc2F)cc1 [1-{4-[4-(4-chloro-2-fluorophenyl)benzoyl]-3,3-dimethylpiperazine-1-carbonyl}cyclopropan-1-ol]	< 500
O=C(c1ccc(-c2ccc3ncccc3c2)c(F)c1)N1CCN(C(=O)C2(O)CC2)CC1 [1-[(4-{[3-fluoro-4-(quinolin-6-yl)phenyl]carbonyl}piperazin-1-yl)carbonyl]cyclopropan-1-ol]	< 500
O=C(c1ccc(-c2cccc(NS(=O)(=O)C3CCCC3)c2)cc1)N1CCN(C(=O)C2(O)CC2)CC1	< 500
Cc1n[nH]c2ncc(-c3ccc(C(=O)N4CCN(C(=O)C5(O)CC5)CC4)cc3)cc12 [1-[4-(4-{3-methyl-1H-pyrazolo[3,4-b]pyridin-5-yl}benzoyl)piperazine-1-carbonyl]cyclopropan-1-ol]	< 500
COc1ccc2nc(-c3ccc(C(=O)N4CCN(C(=O)C5(O)CC5)CC4)c(F)c3F)ccc2c1 [1-[(4-{[2,3-difluoro-4-(6-methoxyquinolin-2-yl)phenyl]carbonyl}piperazin-1-yl)carbonyl]cyclopropan-1-ol]	< 500
O=C(c1ccc(-c2cc(Cl)ccc2Cl)cc1)N1CCN(C(=O)C2(O)CC2)CC1 [1-[(4-{[4-(2,5-dichlorophenyl)phenyl]carbonyl}piperazin-1-yl)carbonyl]cyclopropan-1-ol]	< 500
Cn1ncc2ccc(-c3ccc(C(=O)N4CCN(C(=O)C5(N)CC5)CC4)c(F)c3)cc21 [1-{4-[2-fluoro-4-(1-methyl-1H-indazol-6-yl)benzoyl]piperazine-1-carbonyl}cyclopropan-1-amine]	< 500
O=C(c1ccc(-c2cccc(S(=O)(=O)C3CC3)c2)c(Cl)c1)N1CCN(C(=O)C2(O)CC2)CC1	< 500
O=C(c1ccc(-c2cccc(Cl)c2)cc1)N1CCN(C(=O)C2(O)CC2)CC1 [1-[(4-{[4-(3-chlorophenyl)phenyl]carbonyl}piperazin-1-yl)carbonyl]cyclopropan-1-ol]	< 500

Same assay, conditions: FASN enzymatic assay; Table 2-2

Structure (SMILES)	IC50 [nM]
O=C(c1cnc(-c2cnc3ccccc3c2)cn1)N1CCN(C(=O)C2(O)CC2)CC1 [1-[(4-{[5-(quinolin-3-yl)pyrazin-2-yl]carbonyl}piperazin-1-yl)carbonyl]cyclopropan-1-ol]	500 to 5000
O=C(c1ccc(-c2ccc(F)cc2C(F)(F)F)cc1)N1CCN(C(=O)C2(O)CC2)CC1 [1-{[4-({4-[4-fluoro-2-(trifluoromethyl)phenyl]phenyl}carbonyl)piperazin-1-yl]carbonyl}cyclopropan-1-ol]	500 to 5000
O=C(c1ccc(-c2ccc3[nH]c(=O)oc3c2)cc1)N1CCN(C(=O)C2(O)CC2)CC1 [6-[4-({4-[(1-hydroxycyclopropyl)carbonyl]piperazin-1-yl}carbonyl)phenyl]-2,3-dihydro-1,3-benzoxazol-2-one]	500 to 5000
O=C(c1ccc(-c2ccc(Cl)cc2F)cc1)N1CCN(C(=O)C2(O)CC2)C[C@H]1CO [1-{[(3S)-4-{[4-(4-chloro-2-fluorophenyl)phenyl]carbonyl}-3-(hydroxymethyl)piperazin-1-yl]carbonyl}cyclopropan-1-ol]	500 to 5000
O=C(c1ccc(-c2ccc(Cl)cc2C(F)(F)F)cc1)N1CCN(C(=O)C2(O)CC2)CC1 [1-{[4-({4-[4-chloro-2-(trifluoromethyl)phenyl]phenyl}carbonyl)piperazin-1-yl]carbonyl}cyclopropan-1-ol]	500 to 5000

Same assay, conditions: FASN enzymatic assay; Table 2-3

Structure (SMILES)	IC50 [nM]
Cc1ccc(-c2ccc(C(=O)N3CCN(C(=O)C4(O)CC4)CC3)cc2)c(F)c1 [1-[(4-{[4-(2-fluoro-4-methylphenyl)phenyl]carbonyl}piperazin-1-yl)carbonyl]cyclopropan-1-ol]	≥ 5000
O=C(c1ccc(-c2cccc(F)c2F)cc1)N1CCN(C(=O)C2(O)CC2)CC1 [1-[(4-{[4-(2,3-difluorophenyl)phenyl]carbonyl}piperazin-1-yl)carbonyl]cyclopropan-1-ol]	≥ 5000
O=C(c1cccc(Oc2ccccc2)c1)N1CCN(C(=O)C2(O)CC2)CC1 [1-({4-[(3-phenoxyphenyl)carbonyl]piperazin-1-yl}carbonyl)cyclopropan-1-ol]	≥ 5000
